From patent US20010025105A1, “Certain substituted 1-aryl-3-piperazine-1'-yl propanones” (Molecular Geriatarics Corporation, priority 1997, published 2001) come the findings set out here.

As usually defined, the IC50 is the point on the concentration scale where inhibition reaches its midpoint.

Test [1] deals with microtubule cytoskeleton of human CG neuroblastoma cells. The test can be described thus: Antimicrotubule activity, tubulin immunofluorescence microscopy. It counts as cell-based. As to conditions: 2 hr at 37° C., read-out: Concentration where microtubule destabilization occurs. As to the method: The compounds of the invention according to formula I are effective in destabilizing microtubules, thus are useful in treating certain neoplastic diseases. Indirect immunofluorescence microscopy using the monoclonal antibodies to tubulin is used herein to determine the activity of the compounds of this invention in promoting depolymerization of the microtubule cytoskeleton in cultured cells. The following assay was employed.
Cultured human CG neuroblastoma cells were seeded 1:3 from confluent cultures onto sterile 11×22 mm coverslips in 6 well tissue culture plates 16 hr prior to treatment. The following day, the tissue culture medium is removed and the cells are exposed to various concentrations of compounds of this invention in Krebs Ringer Hepes (KRH) buffer containing a final concentration of 0.5% DMSO as carrier. Incubations were performed at 37° C. in a humidified 5% CO2 atmosphere for 2 hr. After incubation, the cells were fixed in 3% TEM grade formaldehyde in PBS for 45 min at room temperature.
To visualize the effects of the compounds of the invention on the microtubule cytoskeleton, the cells were processed for tubulin immunofluorescence. Briefly, the cells were permeabilized in 0.5% Triton-X 100 in PBS for 5 min. The cells were washed 2× with PBS and aldehydes reduced using 0.5 mg/ml NaBH4 in PBS for 5 min. Subsequently, the cells were blocked for 10 min in 1.5% BSA and 1.5% nonfat dry milk in PBS (blocking solution, BS) for 10 min. The cells were then incubated for 30 min at 37° C. with the monoclonal antibody Tu27B which recognizes b-tubulin (dilution 1:20 in BS). Subsequently, the cells were washed 2× in PBS and once in BS. The cells were then incubated for 30 min at 37° C. with sheep antimouse IgG conjugated to FITC. After incubation, the cells were washed 2× in PBS and once in BS and incubated for 30 min at 37° C. with rabbit antisheep IgG conjugated to FITC. The cells were rinsed in PBS, counterstained with Hoechst 33285 in PBS (1 μg/ml), and rinsed in PBS. The coverslips were mounted in 9:1 glycerol:PBS containing 1 mg/ml p-phenylenediamine and sealed with nail polish.
The cells were viewed using a Jenalumar epifluorescence microscope equipped with the proper filters for Fluorescein Isothiocyanate (FITC) excitation and emission. Lack of effect of a compound is evidenced by the presence of an intact microtubule network in interphase cells, or a mitotic spindle in dividing cells. Antineoplastic compounds of the invention at effective doses result in the disappearance of microtubules in both interphase and mitotic cells.

Test [2] concerns TG3 immunoreactivity in OKA treated MSN1a cells. Kind of test: MSN1a cell culture model, ELISA with TG3 antibody, okadaic acid treated cells. It is filed as cell-based, human. The following applies: 1 μM OKA, 2 hrs at 37° C., read-out: IC50 for inhibition of TG3 immunoreactivity in OKA treated MSN1a cells. As for the experimental part:
This assay can thus be used to determine whether a drug is capable of preventing or intervening in AD by attenuating the production of abnormally phosphorylated paired helical filament epitopes associated with AD. To determine whether a drug is capable of preventing or intervening in AD activity, the MSN1a cells containing tau and associated proteins are treated with OKA capable of greatly increasing immunoreactivity of the MSN1a cells with AD specific monoclonal antibodies. Then, either prior to or concomitantly with OKA treatment, a compound of the present invention is added to the culture. If the compound prevents the induction of the AD epitopes in the MSN1a cells treated with OKA, then it is said to have anti-AD activity. If the AD-specific antibodies are highly reactive with the neuroblastoma cells following OKA treatment in the presence of compound, then the compound is said to be ineffectual against AD.
The MSN1a human neuroblastoma line was subcloned from a population of MSN cells obtained from the laboratory of Dr. Peter Davies (Albert Einstein College of Medicine, New York, N.Y.). Cells were grown and maintained in flasks in RPMI 1640 medium, supplemented with 15% fetal calf serum, 100 U/ml penicillin, 100 U/ml Streptomycin, 0.5 ug/ml fungizone under 7.5% CO2 at 37° C.
Stock solutions of drugs were prepared by dissolving the anhydrous powders to final concentrations of either 10 or 20 mM in 50% aqueous or 100% dimethyl sulfoxide (DMSO), respectively. Working solutions of drugs were prepared by dilution of the stock solutions with Kreb's Ringer in Hepes buffer (KRH) (128 mM NaCl, 5 mM KCl, 2.5 mM CaCl2 1.2 mM MgSO4, 1 mM Na2HPO4, 10 mM dextrose, 20 mM Hepes, pH 7.4). OKA is maintained as a 1 mM stock solution in DMSO prior to dilution to 4 μM in KRH.
MSN cells grown in 225 cm^2 flasks are removed from the incubator, their medium decanted and replaced with 50 ml pre-warmed KRH. The cells are harvested by scraping prior to sedimentation at 1000 rpm for 5 min. The supernatants are discarded and the cell pellets are resuspended, the cells counted and diluted to a density of 2×10^4 cells/[…]. The cells are then plated in a 96 well plate at 50 μl/well and 25 μl of 4 μM OKA and 25 μl of drug are then added to the appropriate wells; the entire 96 well plate is then incubated for 2 hrs at 37° C. Depending on the dilution of drug added, this yields individual wells containing 1 μM OKA, 0-64 μM drug and 2×10^4 cells in 0.26% DMSO in KRH. The incubation is terminated by the addition of 20 μl of 6X extraction buffer and immediate freezing at −80° C. for at least one hr. The 6X extraction buffer contains: 25 mM Tris-HCl, pH 7.6, 150 mM NaCl, 5 mM EDTA, 24 mM β-glycerol phosphate, 10 μg/ml APMSF (4-amidinophenylmethane-sulfonyl flouride), and 2.5 μg/ml each of leupeptin, aprotinin, and pepstatin. The plates are thawed in a 37° C. water bath and 20 μl of cell lysate is added to a replica well in an ELISA plate that already contains 80 μl of coating buffer (15 mM Na2CO3 and 35 mM NaHCO3, pH 9.6). The plates are allowed to coat overnight at 4° C. The plates are washed four times with deionized water and then blocked for 30 min at 37° C. with 200 μl/well pre-warmed 1% bovine serum albumin in 10 mM Tris-HCl, pH 7.4, 150 mM NaCl, 3 mM NaN3 (BSA-TBS). After the blocking solution is removed, 100 μl/well of an appropriate dilution of pre-warmed primary antibody (eg., TG3 or PHF-1) in BSA-TBS is added and incubated at 37° C. for 30 min. Incubation is terninated by washing four times in deionized water at which time 100 μl of an appropriate dilution of pre-warmed secondary antibody (conjugated to alkaline phosphatase) in BSA-TBS is added to each well in the ELISA plate. Incubation is performed for 30 min at 37° C. followed by washing 4 times with deionized water. […] of prewarmed chromogenic substrate (1 mg/mnl p-nitrophenyl phosphate in 10% diethanolamine, 3 mM NaN3, 0.5 mM MgCl2, pH 9.8) is added and the plate incubated for 30 min at 37° C. […]

Where a name gives a salt, the structure may show the parent alone. Read-outs that look alike come from different tables or passages of the source.

On to `Cl.Cl.N#Cc1cccc(C(=O)CCN2CCN(Cc3ccccc3)CC2)c1` [Example 60, 1-(m-Cyanophenyl)-3-(4′-benzyl-1′-piperazinyl)-1-propanone dihydrochloride], for which the minimal effective concentration in test [1] is on record as 20 µM.
In the case of `O=C(CCN1CCN(C(=O)c2ccccc2F)CC1)c1cccs1` [Example 70, 1-(2″-Thienyl)-3-[4′-(o-fluorobenzoyl)-1′-piperazinyl]-1-propanone hydrochloride], the minimal effective concentration in test [1] (Neuroblastoma cell) stood at 20 µM.
With `Cl.Cl.O=C(CCN1CCN(Cc2ccccc2)CC1)c1cccs1` [Example 7, 1-(2″-Thienyl)-3-(4′-benzyl-1′-piperazinyl)-1-propanone dihydrochloride], in test [1], the minimal effective concentration was found to be 20 µM.
For the compound `Cl.Cl.N#Cc1ccc(C(=O)CCN2CCN(Cc3ccccc3)CC2)s1` [Example 85, 1-(5″-Cyano-2″-thienyl)-3-(4′-benzyl-1′-piperazinyl)-1-propanone dihydrochloride], the minimal effective concentration in test [1] came to 20 µM.
Same read-out and setting: as for `Cl.Cl.O=C(CCN1CCN(Cc2cc(F)ccc2F)CC1)c1ccsc1` [Example 38, 1-(3″-Thienyl)-3-[4′-(2′″,5′″-difMuorobenzyl)-1′-piperazinyl]-1-propanone dihydrochloride], the figure is 20 µM; as for `Cl.O=C(CCN1CCN(C(=O)c2c(F)cccc2F)CC1)c1ccccc1F` [Example 41, 1-(o-Fluorophenyl)-3-[4′-(2″,6″-difluorobenzoyl)1′-piperazinyl]-1-propanone hydrochloride], 20 µM.
As for `O=C(CCN1CCN(Cc2ccccc2)CC1)c1ccc(C(=O)CCN2CCN(Cc3ccccc3)CC2)cc1` [Example 50], the minimal effective concentration in test [1] (Neuroblastoma cell) worked out at 20 µM.
Still for that read-out and setting: the value for `O=C(CCN1CCN(Cc2ccccc2)CC1)c1ccc(-c2ccccc2)cc1` [Example 22, 1-p-Biphenyl-3-(4′-benzyl-1′-piperazinyl)-1-propanone dihydrochloride] was 20 µM.
For `O=C(CCN1CCN(C(=O)c2c(F)cccc2F)CC1)c1ccc([N+](=O)[O-])cc1` [Example 40, 1-(p-Nitrophenyl)-3-[4′-(2″,6″-difluorobenzoyl)-1′-piperazinyl]-1-propanone hydrochloride], the minimal effective concentration in test [1] (Neuroblastoma cell) was determined as 20 µM.
As to `Cl.Cl.O=C(CCN1CCN(Cc2ccccc2)CC1)c1ccc(Nc2ccc([N+](=O)[O-])cc2[N+](=O)[O-])cc1` [Example 113], the minimal effective concentration in test [1] was determined as 20 µM.
Regarding `O=C(CCN1CCN(Cc2ccccc2)CC1)c1ccc2c(c1)CCCC2` [Example 20, 1-(1″,2″,3″,4″-Tetrahydronaphth-6″-yl)-3-(4′-benzyl-1′-piperazinyl)-1-propanone dihydrochloride], in test [1] (Neuroblastoma cell), the minimal effective concentration came to 20 µM.
For `O=C(CCN1CCN(Cc2ccccc2)CC1)c1cc2ccccc2o1` [Example 10, 1-(Benzofur-2″-yl)-3-(4′-benzyl-1′-piperazinyl)-1-propanone dihydrochloride], in test [2] (Homo sapiens), the IC50 turned out to be 6 µM. Besides, the minimal effective concentration in test [1] (Neuroblastoma cell) is 20 µM.
For `Cl.Cl.O=C(CCN1CCN(Cc2ccccc2)CC1)c1cc([N+](=O)[O-])c(Cl)s1` [Example 95, 1-(5″-Chloro-4″-nitro-2″-thienyl)-3-(4′-benzyl-1′-piperazinyl)-1-propanone dihydrochloride], the IC50 in test [2] is 2.8 µM. Also, the minimal effective concentration in test [1] is reported as 20 µM.
Regarding `Cl.Cl.O=C(CCN1CCN(Cc2ccccc2)CC1)c1conc1-c1ccccc1` [Example 112, 1-(3″-Phenylisoxazol-4″-yl)-3-(4′-benzyl-1′-piperazinyl)-1-propanone dihydrochloride], in test [1], the minimal effective concentration is listed as 20 µM.
As to `O=C(CCN1CCN(Cc2ccccc2)CC1)c1cc(C(F)(F)F)cc(C(F)(F)F)c1` [Example 9, 1-[3″,5″-Bis-(trifluoromethyl)phenyl]-3-(4′-benzyl-1′-piperazinyl)-1-propanone dihydrochloride], the minimal effective concentration in test [1] (Neuroblastoma cell) was 20 µM.
On to `CC[C@]1(O)C[C@@H]2CN(CCc3c([nH]c4ccccc34)[C@@](C(=O)OC)(c3cc4c(cc3OC)N(C)[C@H]3[C@@](O)(C(=O)OC)[C@H](OC(C)=O)[C@]5(CC)C=CCN6CC[C@]43[C@@H]65)C2)C1` [vinblastine, reference compound], for which the minimal effective concentration in test [1] (Neuroblastoma cell) was 0.05 µM.
On to `Cl.Cl.O=C(CCN1CCN(Cc2ccccc2)CC1)c1ccc(C2CCCCC2)cc1` [Example 27], for which, in test [1], the minimal effective concentration turned out to be 20 µM.
